# Laboratory results from ChEMBL document CHEMBL4177690, “(E)-3-(3,4,5-Trimethoxyphenyl)-1-(pyridin-4-yl)prop-2-en-1-one, a heterocyclic chalcone is a potent and selective CYP1A1 inhibitor and cancer chemopreventive agent” (Bioorg Med Chem Lett, 2017).
# pIC50: −log10 of the molar value.
# Tests used:
# Cytochrome P450 3A4 [1] = biological target: T1, Cytochrome P450 3A4 (Homo sapiens, UniProt P08684); assay: Inhibition of human CYP3A4 expressed in yeast microsomal membranes using dibenzylfluorescein as substrate measured after 10 mins by fluorescence assay; assay type: ADME, cell membranes, Microsomal Membrane
# T1 sequence (P08684 whole entry): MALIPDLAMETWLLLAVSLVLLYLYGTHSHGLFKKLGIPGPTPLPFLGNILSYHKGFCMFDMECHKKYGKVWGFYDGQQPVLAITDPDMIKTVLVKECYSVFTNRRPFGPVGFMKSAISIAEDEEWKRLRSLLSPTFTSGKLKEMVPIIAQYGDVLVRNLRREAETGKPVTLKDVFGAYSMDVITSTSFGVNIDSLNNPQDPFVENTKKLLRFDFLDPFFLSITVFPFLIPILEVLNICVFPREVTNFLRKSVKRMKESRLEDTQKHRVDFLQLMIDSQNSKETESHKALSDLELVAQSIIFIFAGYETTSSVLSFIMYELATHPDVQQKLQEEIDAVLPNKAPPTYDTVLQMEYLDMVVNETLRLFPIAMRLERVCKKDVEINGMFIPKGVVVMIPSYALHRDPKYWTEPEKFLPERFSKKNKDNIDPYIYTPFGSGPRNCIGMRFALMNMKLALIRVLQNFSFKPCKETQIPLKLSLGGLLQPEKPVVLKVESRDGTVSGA
# Cytochrome P450 1B1 [2] = biological target: T2, Cytochrome P450 1B1 (Homo sapiens, UniProt Q16678); assay: Inhibition of recombinant human CYP1B1 expressed in HEK293 cells using 7-ethoxyresorufin as substrate pretreated for 30 mins followed by substrate addition measured for 60 mins by fluorescence assay; assay type: cell-based
# T2 sequence (Q16678 whole entry): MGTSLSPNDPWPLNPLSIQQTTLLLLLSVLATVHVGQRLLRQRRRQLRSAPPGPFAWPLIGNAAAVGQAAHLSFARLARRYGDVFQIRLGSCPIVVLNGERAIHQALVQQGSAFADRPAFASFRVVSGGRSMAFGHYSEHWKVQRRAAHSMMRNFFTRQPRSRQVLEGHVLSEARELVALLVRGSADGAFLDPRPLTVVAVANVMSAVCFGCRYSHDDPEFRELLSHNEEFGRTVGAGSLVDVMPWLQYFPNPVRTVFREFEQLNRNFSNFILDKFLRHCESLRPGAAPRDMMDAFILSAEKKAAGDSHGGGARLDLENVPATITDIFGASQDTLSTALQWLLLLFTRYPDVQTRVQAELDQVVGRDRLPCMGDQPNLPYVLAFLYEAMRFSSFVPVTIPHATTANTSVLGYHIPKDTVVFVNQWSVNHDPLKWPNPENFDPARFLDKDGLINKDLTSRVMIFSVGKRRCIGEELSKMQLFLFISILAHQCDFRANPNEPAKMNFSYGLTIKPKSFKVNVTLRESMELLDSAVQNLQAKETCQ
# Cytochrome P450 1B1 [3] = biological target: T2, Cytochrome P450 1B1; assay: Inhibition of human CYP1B1 expressed in yeast microsomal membranes using 7-ethoxyresorufin as substrate measured after 10 mins by fluorescence assay; assay type: cell membranes
# Cytochrome P450 2C9 [4] = biological target: T3, Cytochrome P450 2C9 (Homo sapiens, UniProt P11712); assay: Inhibition of human CYP2C9 expressed in yeast microsomal membranes using 3-cyano-7-ethoxycoumarin as substrate measured after 10 mins by fluorescence assay; assay type: ADME, cell membranes, Microsomal Membrane
# T3 sequence (P11712 whole entry): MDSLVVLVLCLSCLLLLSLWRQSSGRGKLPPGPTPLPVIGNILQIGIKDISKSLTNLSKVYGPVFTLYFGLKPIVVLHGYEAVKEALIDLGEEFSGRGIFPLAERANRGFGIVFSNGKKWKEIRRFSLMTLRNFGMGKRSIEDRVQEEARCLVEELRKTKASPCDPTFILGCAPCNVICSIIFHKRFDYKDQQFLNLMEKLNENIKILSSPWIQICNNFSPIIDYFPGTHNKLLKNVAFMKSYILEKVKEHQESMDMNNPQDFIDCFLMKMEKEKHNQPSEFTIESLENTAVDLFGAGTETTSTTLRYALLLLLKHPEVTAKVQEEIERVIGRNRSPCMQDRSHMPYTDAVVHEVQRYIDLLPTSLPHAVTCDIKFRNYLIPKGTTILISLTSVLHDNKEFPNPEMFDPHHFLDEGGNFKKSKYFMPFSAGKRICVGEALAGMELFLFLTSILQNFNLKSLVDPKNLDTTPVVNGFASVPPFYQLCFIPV
# Cytochrome P450 1A2 [5] = biological target: T4, Cytochrome P450 1A2 (Homo sapiens, UniProt P05177); assay: Inhibition of recombinant human CYP1A2 expressed in HEK293 cells using 3-cyano-7-ethoxycoumarin as substrate pretreated for 30 mins followed by substrate addition measured for 60 mins by fluorescence assay; assay type: ADME
# T4 sequence (P05177 whole entry): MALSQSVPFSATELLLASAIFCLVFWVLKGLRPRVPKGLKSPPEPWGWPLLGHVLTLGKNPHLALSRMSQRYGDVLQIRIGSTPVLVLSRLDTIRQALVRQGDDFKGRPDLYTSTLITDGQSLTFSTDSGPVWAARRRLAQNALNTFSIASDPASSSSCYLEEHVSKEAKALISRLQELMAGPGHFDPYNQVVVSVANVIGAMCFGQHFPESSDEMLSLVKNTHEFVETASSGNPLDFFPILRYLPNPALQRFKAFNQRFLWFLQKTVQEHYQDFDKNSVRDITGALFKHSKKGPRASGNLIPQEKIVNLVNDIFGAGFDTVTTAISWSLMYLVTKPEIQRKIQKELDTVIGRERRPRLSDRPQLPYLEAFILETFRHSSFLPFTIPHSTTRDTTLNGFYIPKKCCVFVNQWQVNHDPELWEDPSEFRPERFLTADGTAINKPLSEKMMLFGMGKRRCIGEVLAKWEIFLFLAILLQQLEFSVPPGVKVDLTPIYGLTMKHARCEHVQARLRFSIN
# Cytochrome P450 1A1 [6] = biological target: T5, Cytochrome P450 1A1 (Homo sapiens, UniProt P04798); assay: Inhibition of recombinant human CYP1A1 expressed in HEK293 cells using 7-ethoxyresorufin as substrate pretreated for 30 mins followed by substrate addition measured for 60 mins by fluorescence assay; assay type: cell-based
# T5 sequence (P04798 whole entry): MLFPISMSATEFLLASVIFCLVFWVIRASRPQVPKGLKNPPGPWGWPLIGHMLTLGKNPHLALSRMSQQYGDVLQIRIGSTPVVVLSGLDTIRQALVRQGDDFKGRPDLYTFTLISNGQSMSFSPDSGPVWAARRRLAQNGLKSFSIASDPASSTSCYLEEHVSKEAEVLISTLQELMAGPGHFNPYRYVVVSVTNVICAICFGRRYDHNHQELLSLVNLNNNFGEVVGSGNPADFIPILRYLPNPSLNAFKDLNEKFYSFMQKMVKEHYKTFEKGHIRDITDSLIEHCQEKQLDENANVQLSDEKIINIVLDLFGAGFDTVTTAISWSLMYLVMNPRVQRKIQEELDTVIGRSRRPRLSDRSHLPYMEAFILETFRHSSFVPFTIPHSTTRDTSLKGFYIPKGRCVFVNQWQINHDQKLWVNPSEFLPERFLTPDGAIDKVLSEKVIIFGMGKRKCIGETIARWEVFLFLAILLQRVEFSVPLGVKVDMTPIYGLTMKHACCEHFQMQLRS
# Cytochrome P450 1A2 [7] = biological target: T4, Cytochrome P450 1A2; assay: Inhibition of human CYP1A2 expressed in yeast microsomal membranes using 3-cyano-7-ethoxycoumarin as substrate measured after 10 mins by fluorescence assay; assay type: ADME, cell membranes, Microsomal Membrane
# Cytochrome P450 2C19 [8] = biological target: T6, Cytochrome P450 2C19 (Homo sapiens, UniProt P33261); assay: Inhibition of recombinant human CYP2C19 expressed in HEK293 cells using 3-cyano-7-ethoxycoumarin as substrate pretreated for 30 mins followed by substrate addition measured for 60 mins by fluorescence assay; assay type: ADME
# T6 sequence (P33261 whole entry): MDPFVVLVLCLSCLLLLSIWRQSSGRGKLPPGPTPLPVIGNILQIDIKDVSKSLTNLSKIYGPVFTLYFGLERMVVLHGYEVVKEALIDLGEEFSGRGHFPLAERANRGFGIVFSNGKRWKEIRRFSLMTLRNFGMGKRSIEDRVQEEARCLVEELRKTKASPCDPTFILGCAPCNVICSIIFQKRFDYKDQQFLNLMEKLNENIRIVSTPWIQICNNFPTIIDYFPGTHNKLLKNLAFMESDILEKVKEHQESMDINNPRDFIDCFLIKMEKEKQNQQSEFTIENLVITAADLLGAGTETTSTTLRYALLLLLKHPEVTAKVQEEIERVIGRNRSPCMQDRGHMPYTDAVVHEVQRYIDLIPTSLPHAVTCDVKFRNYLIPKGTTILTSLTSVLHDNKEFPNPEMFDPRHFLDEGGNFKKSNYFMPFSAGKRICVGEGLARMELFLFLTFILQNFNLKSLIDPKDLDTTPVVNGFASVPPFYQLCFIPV
# Cytochrome P450 2C19 [9] = biological target: T6, Cytochrome P450 2C19; assay: Inhibition of human CYP2C19 expressed in yeast microsomal membranes using 3-cyano-7-ethoxycoumarin as substrate measured after 10 mins by fluorescence assay; assay type: ADME, cell membranes, Microsomal Membrane
# Cytochrome P450 2D6 [10] = biological target: T7, Cytochrome P450 2D6 (Homo sapiens, UniProt P10635); assay: Inhibition of recombinant human CYP2D6 expressed in HEK293 cells using 7-ethoxy-methyloxy-3-cyanocoumarin as substrate pretreated for 30 mins followed by substrate addition measured for 60 mins by fluorescence assay; assay type: ADME, cell-based
# T7 sequence (P10635 whole entry): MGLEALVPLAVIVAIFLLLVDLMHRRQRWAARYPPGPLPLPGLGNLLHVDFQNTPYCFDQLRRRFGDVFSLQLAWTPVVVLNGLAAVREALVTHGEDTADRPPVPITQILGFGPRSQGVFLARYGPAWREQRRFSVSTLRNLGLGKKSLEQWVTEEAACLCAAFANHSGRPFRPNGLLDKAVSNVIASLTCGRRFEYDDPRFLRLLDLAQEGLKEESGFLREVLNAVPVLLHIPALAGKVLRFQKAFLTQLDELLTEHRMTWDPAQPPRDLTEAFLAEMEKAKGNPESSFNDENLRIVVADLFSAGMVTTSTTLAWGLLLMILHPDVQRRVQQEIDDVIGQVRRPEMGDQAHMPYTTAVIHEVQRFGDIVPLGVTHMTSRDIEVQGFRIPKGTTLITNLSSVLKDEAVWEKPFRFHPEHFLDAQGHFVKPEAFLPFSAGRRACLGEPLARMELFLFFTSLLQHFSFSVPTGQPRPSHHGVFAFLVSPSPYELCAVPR
# Cytochrome P450 2C9 [11] = biological target: T3, Cytochrome P450 2C9; assay: Inhibition of recombinant human CYP2C9 expressed in HEK293 cells using 3-cyano-7-ethoxycoumarin as substrate pretreated for 30 mins followed by substrate addition measured for 60 mins by fluorescence assay; assay type: ADME
# Cytochrome P450 2D6 [12] = biological target: T7, Cytochrome P450 2D6; assay: Inhibition of human CYP2D6 expressed in yeast microsomal membranes using 7-ethoxy-methyloxy-3-cyanocoumarin as substrate measured after 10 mins by fluorescence assay; assay type: ADME, cell membranes, Microsomal Membrane
# Cytochrome P450 3A4 [13] = biological target: T1, Cytochrome P450 3A4; assay: Inhibition of recombinant human CYP3A4 expressed in HEK293 cells using dibenzylfluorescein as substrate pretreated for 30 mins followed by substrate addition measured for 60 mins by fluorescence assay; assay type: ADME
# Cytochrome P450 1A1 [14] = biological target: T5, Cytochrome P450 1A1; assay: Inhibition of human CYP1A1 expressed in yeast microsomal membranes using 7-ethoxyresorufin as substrate measured after 10 mins by fluorescence assay; assay type: cell membranes
# Homo sapiens [15] = organism: Homo sapiens; assay: Selectivity ratio of IC50 for recombinant human CYP1B1 expressed in HEK293 cells to IC50 for recombinant human CYP1A1 expressed in HEK293 cells; assay type: cell-based
# Homo sapiens [16] = organism: Homo sapiens; assay: Selectivity ratio of IC50 for recombinant human CYP1A2 expressed in HEK293 cells to IC50 for recombinant human CYP1A1 expressed in HEK293 cells; assay type: cell-based
# [17] = biological target: T8, Aryl hydrocarbon receptor (Homo sapiens, UniProt P35869); assay: Antagonist activity at recombinant human eGFP-fused Ahr expressed in yeast cells co-expressing ARNT assessed as inhibition of benzo(a)pyrene-induced Ahr activation at 1 uM measured after 18 hrs by fluorescence assay; assay type: cell-based
# T8 sequence (P35869 whole entry): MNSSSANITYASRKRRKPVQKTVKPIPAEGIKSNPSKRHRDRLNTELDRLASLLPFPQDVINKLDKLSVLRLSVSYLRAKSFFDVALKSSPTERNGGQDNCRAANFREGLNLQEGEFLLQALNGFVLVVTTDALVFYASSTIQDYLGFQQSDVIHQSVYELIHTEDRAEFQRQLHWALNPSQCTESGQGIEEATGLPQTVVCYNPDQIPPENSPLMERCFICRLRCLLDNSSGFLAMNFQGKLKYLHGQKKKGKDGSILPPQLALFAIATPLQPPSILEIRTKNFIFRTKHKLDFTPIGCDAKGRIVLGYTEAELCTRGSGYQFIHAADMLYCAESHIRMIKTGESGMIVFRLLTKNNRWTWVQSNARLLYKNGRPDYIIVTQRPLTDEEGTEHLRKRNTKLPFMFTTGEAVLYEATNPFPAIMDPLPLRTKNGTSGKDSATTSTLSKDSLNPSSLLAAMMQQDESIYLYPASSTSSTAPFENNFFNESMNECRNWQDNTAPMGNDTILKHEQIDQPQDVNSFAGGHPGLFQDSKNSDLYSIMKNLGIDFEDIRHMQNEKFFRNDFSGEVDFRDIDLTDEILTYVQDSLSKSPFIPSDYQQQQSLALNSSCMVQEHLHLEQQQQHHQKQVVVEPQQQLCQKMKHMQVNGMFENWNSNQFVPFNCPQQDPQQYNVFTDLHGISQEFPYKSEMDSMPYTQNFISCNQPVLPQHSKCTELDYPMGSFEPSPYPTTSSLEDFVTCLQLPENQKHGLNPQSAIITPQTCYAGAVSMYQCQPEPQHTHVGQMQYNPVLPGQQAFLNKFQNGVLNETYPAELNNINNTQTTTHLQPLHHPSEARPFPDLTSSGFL
Compound,pIC50 (Cytochrome P450 3A4 [1]),pIC50 (Cytochrome P450 1B1 [2]),pIC50 (Cytochrome P450 1B1 [3]),pIC50 (Cytochrome P450 2C9 [4]),pIC50 (Cytochrome P450 1A2 [5]),pIC50 (Cytochrome P450 1A1 [6]),pIC50 (Cytochrome P450 1A2 [7]),pIC50 (Cytochrome P450 2C19 [8]),pIC50 (Cytochrome P450 2C19 [9]),pIC50 (Cytochrome P450 2D6 [10]),pIC50 (Cytochrome P450 2C9 [11]),pIC50 (Cytochrome P450 2D6 [12]),pIC50 (Cytochrome P450 3A4 [13]),pIC50 (Cytochrome P450 1A1 [14]),inhibition (INH) [17],Ratio IC50 (Homo sapiens [15]),Ratio IC50 (Homo sapiens [16])
COc1cccc(/C=C/C(=O)c2ccncc2)c1,< 4.70,7.22,7.27,< 4.70,7.70,6.21,7.70,< 5.00,< 4.70,< 5.00,< 5.00,4.92,< 5.00,6.23,,,
CCOc1cc(/C=C/C(=O)c2ccncc2)cc(OCC)c1OCC,< 4.70,5.00,5.06,< 4.70,5.96,7.04,5.92,< 5.00,< 4.70,< 5.00,< 5.00,4.85,< 5.00,7.04,,< 10,< 10
COc1ccc(/C=C/C(=O)c2ccncc2)cc1OC,< 4.70,6.64,6.77,< 4.70,6.92,6.38,6.92,< 5.00,< 4.70,< 5.00,< 5.00,5.10,< 5.00,6.42,,,
COc1ccccc1/C=C/C(=O)c1ccncc1,< 4.70,7.22,7.32,< 4.70,7.49,6.21,7.49,< 5.00,< 4.70,< 5.00,< 5.00,4.96,< 5.00,6.24,,,
CCOc1c(OC)cc(/C=C/C(=O)c2ccncc2)cc1OC,< 4.70,6.21,6.16,< 4.70,5.66,6.55,5.59,< 5.00,< 4.70,< 5.00,< 5.00,4.92,< 5.00,6.64,,,
COc1cc(/C=C/C(=O)c2ccncc2)cc(OC)c1,< 4.70,7.51,7.39,< 4.70,7.55,6.66,7.55,< 5.00,< 4.70,< 5.00,< 5.00,4.80,< 5.00,6.74,,,
COc1ccc(/C=C/C(=O)c2ccncc2)cc1,< 4.70,5.07,5.15,< 4.70,4.92,5.18,4.92,< 5.00,< 4.70,< 5.00,< 5.00,4.82,< 5.00,5.20,,,

# Now from value to compound, other results behind:
pIC50 (Cytochrome P450 3A4 [1]),pIC50 (Cytochrome P450 1B1 [2]),pIC50 (Cytochrome P450 1B1 [3]),pIC50 (Cytochrome P450 2C9 [4]),pIC50 (Cytochrome P450 1A2 [5]),pIC50 (Cytochrome P450 1A1 [6]),pIC50 (Cytochrome P450 1A2 [7]),pIC50 (Cytochrome P450 2C19 [8]),pIC50 (Cytochrome P450 2C19 [9]),pIC50 (Cytochrome P450 2D6 [10]),pIC50 (Cytochrome P450 2C9 [11]),pIC50 (Cytochrome P450 2D6 [12]),pIC50 (Cytochrome P450 3A4 [13]),pIC50 (Cytochrome P450 1A1 [14]),inhibition (INH) [17],Compound,Ratio IC50 (Homo sapiens [15]),Ratio IC50 (Homo sapiens [16])
< 4.70,6.12,6.19,< 4.70,7.55,6.26,7.46,< 5.00,< 4.70,< 5.00,< 5.00,4.74,< 5.00,6.29,,O=C(/C=C/c1cccc2ccccc12)c1ccncc1,,
< 4.70,5.32,5.42,< 4.70,5.82,7.20,5.88,< 5.00,< 4.70,< 5.00,< 5.00,4.77,< 5.00,7.20,,CCOc1cc(/C=C/C(=O)c2ccncc2)cc(OC)c1OC,< 10,< 10
< 4.70,5.45,5.68,< 4.70,5.82,5.95,5.82,< 5.00,< 4.70,< 5.00,< 5.00,4.92,< 5.00,5.95,,O=C(/C=C/c1ccc2c(c1)OCO2)c1ccncc1,,
< 4.70,7.66,7.49,< 4.70,6.70,5.88,6.98,< 5.00,< 4.70,< 5.00,< 5.00,4.96,< 5.00,5.85,Active,COc1ccc(/C=C/C(=O)c2ccncc2)c(OC)c1OC,,
